Data published in patent publication US9505798B2, “Steroid compounds as RORyt modulators and uses thereof” (New York University, priority 2010, dated 2016).
Read-outs that look alike come from different tables or passages of the source.

Experiments:
[1] = system: experimental autoimmune encephalomyelitis (EAE); experiment: Active EAE (MOG35-55/CFA) in C57BL/6 mice; format: in vivo, mouse; conditions: IP daily from day 2
[2] = target: T1, mouse RORγt (Mus musculus, UniProt P51450); experiment: Drosophila S2 cell RORγt luciferase reporter; format: cell-based; conditions: for effect on RORγ transcriptional activity: S2 reporter system
T1 construct: mouse RORγt (amino acids 79 to the carboxyl terminal end); expressed in transfected cells
T1 sequence (P51450 79-495 isoform P51450-2): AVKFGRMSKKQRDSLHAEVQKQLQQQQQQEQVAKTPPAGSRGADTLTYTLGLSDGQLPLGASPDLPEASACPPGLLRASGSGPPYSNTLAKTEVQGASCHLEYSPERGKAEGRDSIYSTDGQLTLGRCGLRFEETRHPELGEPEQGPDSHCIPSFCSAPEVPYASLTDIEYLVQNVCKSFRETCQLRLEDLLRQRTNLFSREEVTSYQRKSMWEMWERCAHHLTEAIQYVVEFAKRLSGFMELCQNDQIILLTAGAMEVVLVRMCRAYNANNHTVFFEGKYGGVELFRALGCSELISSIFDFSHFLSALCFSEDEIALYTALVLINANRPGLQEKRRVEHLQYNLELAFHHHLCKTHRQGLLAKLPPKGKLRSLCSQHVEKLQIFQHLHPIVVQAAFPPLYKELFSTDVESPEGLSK
Source text: The Drosophila S2 cell line was originally purchased from Invitrogen and was maintained in Schneider's medium supplemented with 10% heat-inactivated bovine fetal calf serum and antibiotics (Invitrogen). […] The resulting chimeric gene was subcloned into the copper inducible pMT/V5-His A vector (Invitrogen). […] Coding sequences for firefly luciferase (Promega) were PCR amplified and subcloned into pUAST vector containing Gal4 binding enhancer sequences. Renilla luciferase construct under the polIII promoter was obtained from Dr. Dasgupta's laboratory (NYU medical center). In order to generate stable cell lines, cells were co-transfected with pMT-G4 DBD-RORγt, pMT-G4 DBD-RORα, pMT-G4 DBD-DHR3, or pMT-G4 DBDVP16 and pHygro plasmids (Invitrogen) and screened for resistant colonies in the presence of hygromycin (0.3 mg/mL). […] Using similar methods, stable clones with genomic integration of the luciferase reporters and other reporters were generated such as pMT-RORα_luc, pMT-DHR3_Luc, or pMT-VP16_luc.
(§1) The following representative compounds are tested for their RORγt inhibitory activity and toxicity.
Promega Dual-Glo system is widely used for HTS as the luciferase substrates. Cell culture medium was reduced to the final volume of 10 μl or less and 10 μl of Dual-glo and 10 μl of Stop-glo luciferase substrates were added in a sequencial manner (Promega). Firefly and Renilla luciferase activity was determined by measuring luminescence signals using an automated 384-well plate reader equipped with multiple stack units (such as the Analyst GT or Envision plate readers).
10,000 Drosophila stable S2 cells with genomic integration of the Cu2+-inducible G4 DBD-mouse RORγ construct were transfected with 5 ng of pUASTfirefly luciferase and 7 ng of Pol III-Renilla luciferase and dispensed into white bottom-tissue culture 384-well plates (Corning). […] The following morning, Stop-glo luciferase substrates (Promega) were used to measure luciferase activity.
The Drosophila S2 cell line was originally purchased from Invitrogen and was maintained in Schneider's Drosophila medium supplemented with 10% heat-inactivated bovine fetal calf serum and 1× antibiotic-antimycotic solution (Invitrogen). […] The resulting chimeric gene was subcloned into the copper inducible pMT/V5-His A vector (Invitrogen) and into the constitutive pAc vector. […] Coding sequences for firefly luciferase (Promega) were PCR amplified and subcloned into the pUAST vector containing five Gal4 binding enhancer sequences. The Renilla luciferase construct under a pol III promoter and the pAc vector were obtained from R. Dasgupta (NYU School of Medicine). To generate cell lines stably expressing various chimeric proteins upon copper addition, S2 cells were co-transfected with pMT plasmids encoding individual G4 DBD chimeric constructs and the pCoHygro plasmid (Invitrogen), before screening for resistant colonies in the presence of hygromycin (0.3 mg/mL). […] The human androgen receptor (hAR) expression plasmid pMK33-hAR and its reporter TAT3-Luc were obtained from M. Garabedian (NYU School of Medicine). […] R1881 (10 nM) and Dafachronic acid (10 μM) were used as ligands for hAR and Daf12. Upon treatment of cells with copper, in 384 well plates, there was specific increase in firefly luciferase activity versus normalized Renilla luciferase activity for all cell lines described above, validating the method for high-throughput screen.
Transfections of firefly and Renilla reporter constructs were performed using the Effectene kit from Qiagen according to the manufacturer's protocol with some modifications.

[3] = system: human embryonic kidney 293t cell lines; experiment: Toxicity on human embryonic kidney 293T cells; conditions: human embryonic kidney 293t cell lines
Description: as §1

[4] = target: T2, RORγt (Mus musculus, UniProt P51450); format: cell-based; conditions: mouse T cells
T2 construct: expressed in transfected cells; host or cells: mouse naive CD4+ T cells, retroviral MIGr vector
Description: Naive CD25^− CD62L^+CD44^low/int cells were sorted from RORγt^fl/fl mice and transduced with control-IRES-GFP (WT) or CRE-IRES-GFP (KO) retrovirus. […] FACS-sorted naive T cells were transduced with retroviral vectors encoding murine RORα-IRES-GFP or RORγt-IRES-GFP on Day 1 (16 h after TCR stimulation) and GFP expressing cells were gated for analysis on Day 5. […] Lymphocytes were isolated on day 21 after disease induction. The cells were stimulated for 4 h with PMA/Ionomycin and stained for surface markers and intracellular cytokines.
T cells were purified from lymph nodes and spleens of six to eight weeks old B6 mice (Taconic), by magnetically depleting B220^+ cells (autoMACS, Miltenyi), and then sorting CD8^−DAPI^−CD19^−CD4^+CD25^−CD62L^+CD44^low/Int naive T cells on a FACSAria (BD). […] For T cell polarization, 200 μl cells were seeded at 0.4×10^5 cells per mL in 96-well plates pre-coated with anti-CD3ε (5 μg/mL) and anti-CD28 (10 μg/mL). Cells were cultured for 4-5 days in Th17 (TGF-β (0.3 ng/mL), IL-6 (20 ng/mL), and anti-IFN-γ and anti-IL-4 (2 ng/mL)), Th1 (IL-12 (10 ng/mL), IL-2 (10 U/mL) and anti-IL-4 (2 ng/mL)), or Th2 (IL-4 (10 ng/mL), and anti-P35 and anti-IFN-γ 2 ng/mL)) conditions. For ectopic expression ROR proteins, native CD4^+ T cells were infected with retroviral MIGr-control, MIGr-RORα or MIGr-RORγ 24 hrs after activation, and cultured without exogenous cytokines or only with IL-6. At day 1, compounds dissolved in DMSO were added. For cytokine analysis, cells were incubated for 5 hours with phorbol 12-myristate 13-acetate (50 ng/mL; Sigma), ionomycin (500 ng/mL; Sigma) and GolgiStop (BD). Intracellular cytokine staining was performed according to the manufacturer's protocol (Cytofix/Cytoperm buffer set from BD) with alexa647-conjugated anti-IL-17a (eBioscience), and PE-conjugated anti-IFN-γ or anti-IL-4 (eBioscience). An LSR II (BD Biosciences) and FlowJo software (Tree Star) were used for flow cytometry and analysis. Dead cells were excluded using the Live/Dead fixable aqua dead cell stain kit (Invitrogen).

T2 sequence (P51450 other isoform, or with tags, fused parts or gaps): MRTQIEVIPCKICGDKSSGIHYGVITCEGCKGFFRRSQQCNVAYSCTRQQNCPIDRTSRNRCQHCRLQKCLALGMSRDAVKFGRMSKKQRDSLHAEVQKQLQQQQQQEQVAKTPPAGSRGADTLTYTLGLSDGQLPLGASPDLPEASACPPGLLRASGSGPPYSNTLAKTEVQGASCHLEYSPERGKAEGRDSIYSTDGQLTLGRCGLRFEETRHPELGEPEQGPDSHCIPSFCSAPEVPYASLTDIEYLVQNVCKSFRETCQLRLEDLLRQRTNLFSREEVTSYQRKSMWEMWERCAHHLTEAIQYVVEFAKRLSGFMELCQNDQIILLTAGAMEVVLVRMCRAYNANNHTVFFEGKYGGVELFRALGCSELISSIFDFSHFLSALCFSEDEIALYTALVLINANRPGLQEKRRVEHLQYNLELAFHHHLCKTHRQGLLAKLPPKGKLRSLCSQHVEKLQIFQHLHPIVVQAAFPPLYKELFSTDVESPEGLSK

Question: With `C[C@]12CC[C@H](O)C[C@H]1CC[C@@H]1[C@@H]2C[C@@H](O)[C@]2(C)[C@@H](C3=CC(=O)OC3)CC[C@]12O` [digoxigenin, Digoxigenin] as the molecule, how does the “EAE onset and severity of progression” value [1] read?
Answer: The value was “no effect”.

Question: How did the “effect on RORγ transcriptional activity” value [2] turn out when `C[C@]12C[C@@H](O)[C@H]3[C@@H](CC[C@]4(O)C[C@@H](O)C[C@@H](O)[C@]34CO)[C@@]1(O)CC[C@@H]2C1=CC(=O)OC1` [ouabagenin, Ouabagenin] was run?
Answer: The value was “no significant effect”.

Question: How did the “effect on RORγ transcriptional activity” value [2] turn out when `C[C@]12CC[C@H](O)C[C@H]1CC[C@@H]1[C@@H]2CC[C@]2(C)[C@@H](C3=CC(=O)OC3)CC[C@]12O` [digitoxigenin, Digitoxigenin] was run?
Answer: The value was “no significant effect”.

Question: For `CO[C@H]1C[C@H](O[C@H]2CC[C@@]3(C)[C@H](CC[C@@H]4[C@@H]3CC[C@]3(C)[C@@H](C5=CC(=O)OC5)[C@@H](OC(C)=O)C[C@]43O)C2)O[C@@H](C)[C@@H]1O` [oleandrin, Oleandrin], which “effect on RORγ transcriptional activity” value [2] is on record?
Answer: The value was “no significant effect”.

Question: Which IC50 ([2]; S2 cell RORγt reporter, read-out: IC50) does the source give for `COC(=O)C1CCC2(O)C3CCC4CC(OC5CC(O)C(OC6CC(O)C(OC7CC(O)C(O)C(C)O7)C(C)O6)C(C)O5)CCC4(C)C3CC(O)C12C` (stereo not shown) [Compound 24] here?
Answer: Its IC50 is 1 to 10 µM.

Question: For `CC1O[C@@H](OC2C(C)O[C@H](OC3C(C)O[C@@H](O[C@H]4CC[C@@]5(C)[C@H](CC[C@@H]6[C@@H]5C[C@@H](O)[C@]5(C)[C@@H](C7CC(=O)OC7Cc7ccccc7O)CC[C@]65O)C4)C[C@H]3O)C[C@H]2O)C[C@@H](O)C1O` (stereo partly shown) [Compound 19], which Human cell toxicity [3] is on record?
Answer: The Human cell toxicity was “xxx (cytotoxicity between 1-10 μM)”.

Question: What about the IC50 [2] of the same molecule?
Answer: The IC50 was 1 to 10 µM.

Question: How did the “effect on RORγ transcriptional activity” value [2] turn out when `C[C@H]1O[C@@H](O[C@H]2CC[C@]3(C=O)[C@H]4CC[C@]5(C)[C@@H](C6=CC(=O)OC6)CC[C@]5(O)[C@@H]4CC[C@]3(O)C2)C[C@H](O)[C@@H]1O[C@@H]1O[C@H](CO)[C@@H](O)[C@H](O)[C@H]1O` [erysimoside, Erysimoside] was run?
Answer: The value was “no significant effect”.

Question: For β-acetyldigoxin, which “RORγt-dependent Th17 cell differentiation” value [4] is on record?
Answer: Its value is “selectively inhibited”.

Question: What about the “effect on RORγ transcriptional activity” value [2] of the same molecule?
Answer: The value was “selectively inhibited RORγ with similar IC50 values”.

Question: How did the IC50 [2] turn out when `CC1O[C@@H](OC2C(C)O[C@H](OC3C(C)O[C@@H](O[C@H]4CC[C@@]5(C)[C@H](CC[C@@H]6[C@@H]5C[C@@H](O)[C@]5(C)[C@@H](C7CC(O)OC7Cc7ccccc7O)CC[C@]65O)C4)C[C@H]3O)C[C@H]2O)C[C@@H](O)C1O` (stereo partly shown) [Compound 20] was run?
Answer: The IC50 was over 20 µM.

Question: With `CC(=O)OC1C(C)O[C@@H](OC2C(C)O[C@H](OC3C(C)O[C@@H](O[C@H]4CC[C@@]5(C)[C@H](CC[C@@H]6[C@@H]5C[C@@H](OC(C)=O)[C@]5(C)[C@@H](C7=CC(=O)OC7)CC[C@]65O)C4)C[C@H]3OC(C)=O)C[C@H]2OC(C)=O)C[C@H]1OC(C)=O` (stereo partly shown) [Compound 21] as the molecule, how does the IC50 [2] read?
Answer: The IC50 was over 20 µM.

Question: With `C[C@@H]1O[C@@H](O[C@H]2C[C@@H](O)[C@]3(CO)[C@H]4[C@H](O)C[C@]5(C)[C@@H](C6=CC(=O)OC6)CC[C@]5(O)[C@@H]4CC[C@]3(O)C2)[C@H](O)[C@H](O)[C@H]1O` [ouabain, Ouabain octahydrate] as the molecule, how does the “effect on RORγ transcriptional activity” value [2] read?
Answer: The value was “no significant effect”.

Question: Which “effect on RORγ transcriptional activity” value [2] does the source give for `C[C@@H]1O[C@@H](O[C@@H]2C=C3CC[C@@H]4[C@H](CC[C@]5(C)[C@@H](c6ccc(=O)oc6)CC[C@]45O)[C@@]3(C)CC2)[C@H](O)[C@H](O)[C@H]1O` [proscillaridin A, Proscillaridin A] here?
Answer: The value was “no significant effect”.

Question: With `CC1O[C@@H](OC2C(C)O[C@H](OC3C(C)O[C@@H](O[C@H]4CC[C@@]5(C)[C@H](CC[C@@H]6[C@@H]5C[C@@H](O)[C@]5(C)[C@@H](C7=CC(=O)OC7Cc7ccccc7O)CC[C@]65O)C4)C[C@H]3O)C[C@H]2O)C[C@@H](O)C1O` (stereo partly shown) [Compound 18, Digoxin-21-salicylyl] as the molecule, how does the Human cell toxicity [3] read?
Answer: Its Human cell toxicity is “xxx (cytotoxicity between 1-10 μM)”.

Question: And the IC50 [2]?
Answer: Its IC50 is under 1 µM.

Question: With `C[C@H]1O[C@@H](O[C@H]2[C@@H](O)C[C@H](O[C@H]3[C@@H](O)C[C@H](O[C@H]4CC[C@@]5(C)[C@H](CC[C@@H]6[C@@H]5CC[C@]5(C)[C@@H](C7=CC(=O)OC7)CC[C@]65O)C4)O[C@@H]3C)O[C@@H]2C)C[C@H](O)[C@@H]1O` [Digitoxin] as the molecule, how does the “RORγt-dependent Th17 cell differentiation” value [4] read?
Answer: The value was “selectively inhibited”.

Question: What about the “effect on RORγ transcriptional activity” value [2] of the same molecule?
Answer: The value was “selectively inhibited RORγ with similar IC50 values”.

Question: Which “effect on RORγ transcriptional activity” value [2] does the source give for `C[C@H]1O[C@@H](O[C@H]2CC[C@@]3(C)[C@H](CC[C@@H]4[C@@H]3C[C@@H](O)[C@]3(C)[C@@H](C5=CC(=O)OC5)CC[C@]43O)C2)C[C@H](O)[C@@H]1O[C@H]1C[C@H](O)[C@H](O[C@H]2C[C@H](O)[C@H](O[C@@H]3O[C@H](CO)[C@@H](O)[C@H](O)[C@H]3O)[C@@H](C)O2)[C@@H](C)O1` [deslanoside, Deslanoside] here?
Answer: The value was “no significant effect”.
